Columns and labels:
wheat callus = test: Killing curve: callus growth and regeneration under constant selection pressure; type: cell-based, Triticum aestivum
Method: To define the sensitivity of wheat tissues during transformation when D-Serine and D-Alanine are present as selection agents regeneration experiments with immature embryos were designed. Immature embryos were immersed in PAWinf medium and subjected to all steps of callus induction, callus maintaining and regeneration in transformation protocol above.
Sensitivity of callus tissue under constant selection pressure were evaluated using range of concentrations: 0.5 mM, 1 mM, 3 mM, 5 mM, 10 mM, 25 mM, 50 mM. Experiments were performed in triplicates. Percentage of embryos forming embryos-genic callus was scored on PAW-4 regeneration medium. At the end of shoots elongation regeneration capacity of the calluses was scored as calluses regenerating shoots and number of shoots per callus.
Range of the tested concentrations 0.5-50 mM D-ser and D-ala are evaluated in replicating regeneration experiments. The effect of selective compounds is estimated during callus growth and shoots formation following transformation procedure on medium with D-serine and D-alanine (Table 4).

[1] = system: non-transgenic wheat plants; test: D-serine as a nitrogen source in hydroponics; type: in vivo, Triticum aestivum
Method: T1 and T2 transgenic progenies were grown on hydroponics system where hydroponics solution (Gamborg and Wetter, 1975) was modified by replacing nitrogen with D-serine in five different concentrations (20, 30, 50 70 and 100 mM). Transgenic progenies and control seedlings were grown also on standard hydroponics solution as controls. The dry weigh of all 14 days old seedlings was measured.
Catabolic products of D-serine deaminase are ammonium and pyruvate—key compounds in plant metabolism. Theoretically, transgenic plants equipped with a functional dsdA gene are expected to utilize D-serine as a nitrogen source. We investigated this phenomenon in a hydroponic growth system by exchanging the nitrogen supply with D-serine. T2 progenies representing several independent transgenic events were subjected to two sets of hydroponic experiments.
The first hydroponics experiments were performed with plants from three independent transgenic lines 2256, 2258 and 2264 carrying the dsdA and ahas selectable marker genes and a range of D-serine concentrations (FIG. 15 I). […] Statistically significant differences between controls and transgenic plants on corresponding concentrations of D-serine were detected. Two of these transgenic lines were inhibited in all tested D-serine concentrations. […]

wheat in vitro shoots = test: Killing curve: rooting of in vitro shoots; type: in vivo, Triticum aestivum
Source text: […] The effect of selection agents was observed two and tree weeks later. Number of plantlets with growing roots and green leaves were scored.
In vitro regenerated shoots from media lacking the selection compounds were collected and transferred on medium for rooting (½ MS salts hormone free). Roots formation, growth of the shoots and leaves elongation was scored two and four weeks later after sub culturing of these shoots to the medium supplemented with D-amino acids (Table 5).

wheat immature embryos = test: Killing curve: in vitro germination of immature embryos and seedling growth; type: in vivo, Triticum aestivum
Method: In order to establish effective concentrations of D-serine and D-alanine on inhibiting growth of tissue cultured wheat cells, a bioassay system using immature embryos was applied. Immature embryos 2 mm in length were dissected onto germination medium with the selection agents, and incubated at 27° C. in light. The number of germinated embryos with well-developed shoots and brunched shoots were scored after 14 days.
Immature embryos 2 mm in size were isolated from the sterilized caryopses. The embryos were cultured on PAW-5 hormone free medium for germination in dark. Seedlings growth on D-amino acid selection was observed after 2 weeks. Most of the embryos germinated but the seedlings growth was inhibited when roots emerge and the uptake of the selection compound was direct from the medium. The Lethal Dose (LD 100) for seedlings germination and growth was 1 mM concentration of both D-amino acids tested (Table 6). Seedlings derived from embryos isolated from the immature caryopsis without endosperms were susceptible to the selection in concentration higher than 1 mM (FIG. 8).

[2] = system: control seedlings (wheat); test: Spraying of seedlings with D-serine; type: in vivo, Triticum aestivum; conditions: 5 days old control seedlings; 50-300 mM
Source text: Unlike Arabidopsis (Ericson et al. 2004a), spraying of 5 days old control and trans-genic seedlings with D-serine was not efficient in wheat. […] Watering of the plants was also not sufficient. Since the uptake, mobility in soil and detoxification by microorganisms are all potential barriers for D-serine in the soil, the expectation of in soil selection seems bleak. Therefore, that the transgenic plants will use the products from detoxification of D-serine as an additional nitrogen supply was not fulfilled in soil.

SMILES: N[C@H](CO)C(=O)O [D-serine]
- regeneration capacity of the calli measured as number of regenerants per callus line (wheat callus; 0.5 mM): clear increase
- number of calli regenerating plants reduced (wheat callus; 3 mM): 50%
- Regeneration capacity of the calli reduced (wheat callus; 5 mM): 70%
- Regenerated Embryogenic Lines (%) (wheat callus; Bobwhite, 0.5 mM): 83%
- Regenerated Embryogenic Lines (%) (wheat callus; Bobwhite, 3 mM): 57%
- Regenerated Embryogenic Lines (%) (wheat callus; Bobwhite, 5 mM): 32.5%
- Regenerated Embryogenic Lines (%) (wheat callus; Bobwhite, 10 mM): 10%
- Regenerated Embryogenic Lines (%) (wheat callus; Bobwhite, 15 mM): 6%
- Regenerated Embryogenic Lines (%) (wheat callus; Bobwhite, 25 mM): 0%
- Regenerated Embryogenic Lines (%) (wheat callus; Bobwhite, 50 mM): 0%
- Regenerated Embryogenic Lines (%) (wheat callus; Canon, 0.5 mM): 84%
- Regenerated Embryogenic Lines (%) (wheat callus; Canon, 3 mM): 56%
- Regenerated Embryogenic Lines (%) (wheat callus; Canon, 5 mM): 23%
- Regenerated Embryogenic Lines (%) (wheat callus; Canon, 10 mM): 6%
- Regenerated Embryogenic Lines (%) (wheat callus; Canon, 15 mM): 3%
- Regenerated Embryogenic Lines (%) (wheat callus; Canon, 25 mM): 0%
- Regenerated Embryogenic Lines (%) (wheat callus; Canon, 50 mM): 0%
- lethal dose (LD 100) for regeneration response of callus (wheat callus; tested in both varieties): 25 mM
- growth of non-transgenic control plants in hydroponics ([1]; hydroponics solution supplemented with 30, 50 and 70 mM): not able to grow
- growth of non-transgenic plants in hydroponics ([1]; nitrogen replaced by D-serine, all tested concentrations (20, 30, 50, 70 and 100 mM)): fully inhibited
- root formation of non-transgenic shoots (wheat in vitro shoots; 5 mM): not able to form roots
- Rooted Shoots (%) (wheat in vitro shoots; Bobwhite, 1 mM): 64%
- Rooted Shoots (%) (wheat in vitro shoots; Bobwhite, 3 mM): 24%
- Rooted Shoots (%) (wheat in vitro shoots; Bobwhite, 5 mM): 3%
- Rooted Shoots (%) (wheat in vitro shoots; Bobwhite, 10 mM): 0%
- Rooted Shoots (%) (wheat in vitro shoots; Bobwhite, 15 mM): 0%
- Rooted Shoots (%) (wheat in vitro shoots; Bobwhite, 25 mM): 0%
- Rooted Shoots (%) (wheat in vitro shoots; Canon, 1 mM): 56%
- Rooted Shoots (%) (wheat in vitro shoots; Canon, 3 mM): 16%
- Rooted Shoots (%) (wheat in vitro shoots; Canon, 5 mM): 2%
- Rooted Shoots (%) (wheat in vitro shoots; Canon, 10 mM): 0%
- Rooted Shoots (%) (wheat in vitro shoots; Canon, 15 mM): 0%
- Rooted Shoots (%) (wheat in vitro shoots; Canon, 25 mM): 0%
- In vitro germination, Immature Embryos (%) (wheat immature embryos; Bobwhite, 0.5 mM): 46%
- In vitro germination, Immature Embryos (%) (wheat immature embryos; Bobwhite, 1 mM): 0%
- In vitro germination, Immature Embryos (%) (wheat immature embryos; Bobwhite, 5 mM): 0%
- In vitro germination, Immature Embryos (%) (wheat immature embryos; Bobwhite, 10 mM): 0%
- In vitro germination, Immature Embryos (%) (wheat immature embryos; Canon, 0.5 mM): 34%
- In vitro germination, Immature Embryos (%) (wheat immature embryos; Canon, 1 mM): 0%
- In vitro germination, Immature Embryos (%) (wheat immature embryos; Canon, 5 mM): 0%
- In vitro germination, Immature Embryos (%) (wheat immature embryos; Canon, 10 mM): 0%
- toxicity symptoms after spraying [2]: not sufficient to elicit toxicity symptoms

Reference: patent US20090106856A1, “Selection System for Wheat” (BASF PLANT SCIENCE GMBH, priority 2005, published 2009)
